Measured values from patent US9610285B2, “Compositions for controlling food intake and uses therefor” (UNIVERSITY OF FLORIDA RESEARCH FOUNDATION, INCORPORATED, priority 2011, dated 2017).
Structures can show the parent of a compound that is named as a salt. Marks after values point to notes of the source that are not given here.

Tests used:
Assay type in all cases: in vivo, rat
[1] = test system: Male Sprague-Dawley rats; experiment: Palatable food intake following drug injections in binge-eating rats (Example 2); conditions: for Effect on palatable food (fat) intake, in words / Effect on palatable food (sugar) intake, in words / Effect on palatable food (sugar-fat) intake, in words: one-way ANOVA over saline, low and high dose
Text: (§1) Male Sprague-Dawley rats, 250-300 g at the onset of the experiment, were obtained from Taconic Farms (Germantown, N.Y., USA). Rats were housed individually on a 12-h reversed light/dark cycle and given 1 wk to acclimate before diet training began.
(§2) The rats were divided into groups (n=10/group) matched for body weight and assigned to one of the following dietary conditions: (1) Binge Sugar, (2) Binge Fat or (3) Binge Sugar-Fat. All rats received palatable diets and standard rodent chow (LabDiet #5001, PMI Nutrition International, Richmond, Ind., USA; 10% fat, 20% protein, 70% carbohydrate, 3.02 kcal/g) for 12 h/day, starting 4 h after the onset of the dark cycle. Water was available ad libitum.
(§3) All palatable foods were mixed in the laboratory. The Binge Sugar group had access to a 10% (w/v) sucrose solution (Domino® Granulated Pure Cane Sugar, dissolved in tap water, 0.4 kcal/mL), the Binge Fat group had access to a 35% (w/v) fat emulsion (3.1 kcal/mL) and the Binge Sugar-Fat group had access to a 10% (w/v) sugar solution and 35% (w/v) fat emulsion (3.5 kcal/mL). Both emulsions were made with Wesson® Pure Vegetable Oil in tap water and 0.6% (w/v) Emplex, a commercially available emulsifier (American Ingredients Company, Kansas City, Mo., USA). Palatable food intakes were recorded daily. Chow intake was recorded weekly. Body weights were taken at the beginning and end of the 21-day diet period.
(§4) After 21 days on these diets, drug testing began. During testing, diet regimens were maintained. Approximately 3.5 h into the dark cycle, animals were weighed and intraperitoneal (i.p.) injections of drug were given (according to the schedule below). 30 min later (4 h into the dark cycle) palatable food and chow were made available to the rats. For the first 3 days, rats were acclimated to handling and daily vehicle injections (0.9% saline, Hospira, Lake Forest, Ill., USA, i.p. 1 mL/kg). For days 4-16 of drug testing, either vehicle or drug was alternatively administered, starting with drug on day 4. […] Intake of palatable food and chow was measured hourly after injection for 4 h and again at the end of the 12-h access period.
(§5) Palatable food and standard chow intakes following saline injections between days 4-16 were averaged. All data were analyzed using one-way ANOVAs with post hoc Multiple Comparisons, when appropriate. In Tables 4-7, values having the same letter superscript are statistically different from one another.

[2] = test system: Male Sprague-Dawley rats; experiment: Standard chow intake following drug injections in binge-eating rats (Example 2); conditions: for Effect on standard chow intake, in words: one-way ANOVA over saline, low and high dose
Text: as §1, §2, §3, §4, §5

[3] = test system: Male Sprague-Dawley rats; experiment: Total caloric intake following drug injections in binge-eating rats (Example 2); conditions: for Effect on total caloric intake, in words: one-way ANOVA over saline, low and high dose
Text: as §1, §2, §3, §4, §5

[4] = test system: rats; experiment: Binge eating rats, palatable food and chow intake (Example 1, FIGS. 1-5); conditions: drug alone, i.p., figure legends
Method: Baclofen (at 1.0 and 1.8 mg/kg, administered i.p.)
Baclofen+naltrexone (mixed low and mixed high)
1. Binge Sugar (10% sucrose solution, w/v)
2. Binge Fat (35% oil emulsion, w/v)
3. Binge Sugar/Fat (10% sucrose, 35% oil emulsion, w/v)
Groups of animals (rats) were maintained on their diets for 3 weeks to establish stable binge eating behavior. After this period of time, the rats were administered three days of daily i.p. injections of saline (to acclimate to the injection procedure), and sugar/chow intake was measured after the first hour of access and then hourly for the next 3 hours, as well as at the end of the 12-h access period. After this three-day period, rats were given baclofen+naloxone, and measurements taken as described above. Other dosage amounts of baclofen and naloxone were tested, as were the effects of these compounds alone (with measurements being performed as described above). Vehicle injections were performed between the various tests in order to allow for suitable clearance of compounds from the animals. […] Thus, the treatment appears ideally suited for food addicts, hedonic overeaters and changes food choice but not appetite.

[5] = Binge Fat group, 1 h, high dose (naltrexone 1.0 mg/kg, baclofen 1.8 mg/kg, or both, i.p.)
[6] = Binge Fat group, 1 h, low dose (naltrexone 0.1 mg/kg, baclofen 1.0 mg/kg, or both, i.p.)
[7] = Binge Fat group, 12 h, high dose (naltrexone 1.0 mg/kg, baclofen 1.8 mg/kg, or both, i.p.)
[8] = Binge Fat group, 12 h, low dose (naltrexone 0.1 mg/kg, baclofen 1.0 mg/kg, or both, i.p.)
[9] = Binge Sugar group, 1 h, high dose (naltrexone 1.0 mg/kg, baclofen 1.8 mg/kg, or both, i.p.)
[10] = Binge Sugar group, 1 h, low dose (naltrexone 0.1 mg/kg, baclofen 1.0 mg/kg, or both, i.p.)
[11] = Binge Sugar group, 12 h, high dose (naltrexone 1.0 mg/kg, baclofen 1.8 mg/kg, or both, i.p.)
[12] = Binge Sugar group, 12 h, low dose (naltrexone 0.1 mg/kg, baclofen 1.0 mg/kg, or both, i.p.)
[13] = Binge Sugar-Fat group, 1 h, high dose (naltrexone 1.0 mg/kg, baclofen 1.8 mg/kg, or both, i.p.)
[14] = Binge Sugar-Fat group, 1 h, low dose (naltrexone 0.1 mg/kg, baclofen 1.0 mg/kg, or both, i.p.)
[15] = Binge Sugar-Fat group, 12 h, high dose (naltrexone 1.0 mg/kg, baclofen 1.8 mg/kg, or both, i.p.)
[16] = Binge Sugar-Fat group, 12 h, low dose (naltrexone 0.1 mg/kg, baclofen 1.0 mg/kg, or both, i.p.)

O=C1CC[C@@]2(O)[C@H]3Cc4ccc(O)c5c4[C@@]2(CCN3CC2CC2)[C@H]1O5 [Naltrexone, naltrexone hydrochloride]
1-H Palatable Food Intake [1, 5]: 9.9 ± 2.0 kcal
Palatable food intake as a percent of intake after saline injections, 1-H Intake (%) [1, 5]: 59%
Palatable food intake as a percent of intake after saline injections, 1-H Intake (%) [1, 6]: 70%
Effect on palatable food (fat) intake, in words ([1]; Binge Fat group, 1 h): no significant effect
12-H Palatable Food Intake [1, 7]: 53.3 ± 4.5 kcal
Palatable food intake as a percent of intake after saline injections, 12-H Intake (%) [1, 7]: 91%
12-H Palatable Food Intake [1, 8]: 49.9 ± 3.6 kcal
Palatable food intake as a percent of intake after saline injections, 12-H Intake (%) [1, 8]: 85%
Effect on palatable food (fat) intake, in words ([1]; Binge Fat group, 12 h): no significant effect
1-H Palatable Food Intake (Kcal) [1, 9]: 2.6 ± 0.4^a Kcal
Palatable food intake as a percent of intake after saline injections, 1-H Intake (%) [1, 9]: 92%
1-H Palatable Food Intake (Kcal) [1, 10]: 4.4 ± 0.7^a Kcal
Palatable food intake as a percent of intake after saline injections, 1-H Intake (%) [1, 10]: 158%
Effect on palatable food (sugar) intake, in words ([1]; Binge Sugar group, 1 h): significantly decreased
12-H Palatable Food Intake (Kcal) [1, 11]: 10.8 ± 1.8^r Kcal
Palatable food intake as a percent of intake after saline injections, 12-H Intake (%) [1, 11]: 85%
12-H Palatable Food Intake (Kcal) [1, 12]: 18.7 ± 2.4^r Kcal
Palatable food intake as a percent of intake after saline injections, 12-H Intake (%) [1, 12]: 92%
Effect on palatable food (sugar) intake, in words ([1]; Binge Sugar group, 12 h): significantly decreased
1-H Palatable Food Intake [1, 13]: 17.6 ± 3.5 kcal
Palatable food intake as a percent of intake after saline injections, 1-H Intake (%) [1, 13]: 75%
1-H Palatable Food Intake [1, 14]: 17.3 ± 1.7 kcal
Palatable food intake as a percent of intake after saline injections, 1-H Intake (%) [1, 14]: 74%
Effect on palatable food (sugar-fat) intake, in words ([1]; Binge Sugar-Fat group, 1 h): no effect
12-H Palatable Food Intake [1, 15]: 83.3 ± 8.1 kcal
Palatable food intake as a percent of intake after saline injections, 12-H Intake (%) [1, 15]: 109%
12-H Palatable Food Intake [1, 16]: 70.6 ± 3.4 kcal
Palatable food intake as a percent of intake after saline injections, 12-H Intake (%) [1, 16]: 92%
Effect on palatable food (sugar-fat) intake, in words ([1]; Binge Sugar-Fat group, 12 h): no effect
1-H Chow Intake [2, 5]: 10.1 ± 1.2 kcal
1-H Chow Intake [2, 6]: 8.5 ± 1.1 kcal
12-H Chow Intake [2, 7]: 37.0 ± 3.4 kcal
12-H Chow Intake [2, 8]: 34.1 ± 4.3 kcal
1-H Chow Intake [2, 9]: 20.1 ± 1.3 kcal
1-H Chow Intake [2, 10]: 25.5 ± 3.2 kcal
12-H Chow Intake (Kcal) [2, 11]: 78.6 ± 4.7^b Kcal
12-H Chow Intake (Kcal) [2, 12]: 73.7 ± 5.1^a Kcal
1-H Chow Intake [2, 13]: 7.1 ± 0.9 kcal
1-H Chow Intake [2, 14]: 6.6 ± 1.0 kcal
Effect on standard chow intake, in words ([2]; Binge Sugar-Fat group, 1 h): no effect
12-H Chow Intake [2, 15]: 27.4 ± 2.6 kcal
12-H Chow Intake [2, 16]: 26.4 ± 1.9 kcal
Effect on standard chow intake, in words ([2]; Binge Sugar-Fat group, 12 h): no effect
Effect on standard chow intake, in words ([2]; Fat group, 1 h): no effect
Effect on standard chow intake, in words ([2]; Fat group, 12 h): no effect
Effect on standard chow intake, in words ([2]; Sugar group, 1 h): no effect
Effect on standard chow intake, in words ([2]; Sugar group, 12 h): stimulated chow intake
1-H Total Caloric Intake [3, 5]: 19.9 ± 3.2 kcal
1-H Total Caloric Intake [3, 6]: 20.2 ± 3.0 kcal
12-H Total Caloric Intake [3, 7]: 90.3 ± 8.3 kcal
12-H Total Caloric Intake [3, 8]: 84.0 ± 7.9 kcal
1-H Total Caloric Intake [3, 9]: 22.6 ± 1.7 kcal
1-H Total Caloric Intake (Kcal) [3, 10]: 29.9 ± 3.9^a Kcal
12-H Total Caloric Intake [3, 11]: 89.4 ± 6.4 kcal
12-H Total Caloric Intake [3, 12]: 85.4 ± 7.5 kcal
1-H Total Caloric Intake [3, 13]: 24.8 ± 4.4 kcal
1-H Total Caloric Intake [3, 14]: 23.9 ± 2.7 kcal
12-H Total Caloric Intake [3, 15]: 110.7 ± 10.7 kcal
12-H Total Caloric Intake [3, 16]: 97.0 ± 5.7 kcal
Effect on total caloric intake, in words ([3]; Fat group, 1 h): no effect
Effect on total caloric intake, in words ([3]; Fat group, 12 h): no effect
Effect on total caloric intake, in words ([3]; Sugar group, 1 h): significantly increased
Effect on total caloric intake, in words ([3]; Sugar group, 12 h): differences were no longer evident
Effect on total caloric intake, in words ([3]; Sugar-Fat group, 1 h): no effect
Effect on total caloric intake, in words ([3]; Sugar-Fat group, 12 h): no effect
Effect on intake of oil-containing palatable foods ([4]; oil containing groups (Binge Fat, Binge Sugar/Fat)): trend toward reducing food intake
Effect on binge eating of sugar ([4]; sugar-binging rats): no effect
